Experimental findings from patent US20230373989A1, “N-PHENYLAMINOCARBONYL PYRIDINO-, PYRIMIDINO AND BENZO-TROPANES AS MODULATORS OF GPR65” (PATHIOS THERAPEUTICS LIMITED, priority 2020, published 2023) are described below.

Bounds are passed on as bounds.

T1 sequence (Q8IYL9 whole entry): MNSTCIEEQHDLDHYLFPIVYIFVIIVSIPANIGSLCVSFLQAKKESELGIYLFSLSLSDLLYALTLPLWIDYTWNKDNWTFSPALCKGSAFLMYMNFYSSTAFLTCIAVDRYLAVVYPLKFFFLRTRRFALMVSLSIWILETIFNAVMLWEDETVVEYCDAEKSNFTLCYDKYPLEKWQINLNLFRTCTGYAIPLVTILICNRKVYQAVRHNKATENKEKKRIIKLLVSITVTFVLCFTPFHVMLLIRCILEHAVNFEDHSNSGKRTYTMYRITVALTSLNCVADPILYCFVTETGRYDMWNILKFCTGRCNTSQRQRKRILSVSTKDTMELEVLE

The first experiment has as its target T1, human recombinant GPR65 (Homo sapiens, UniProt Q8IYL9).
T1 construct: host or cells: 1321N1 human astrocytoma cells (1321N1-hrGPR65)
Put plainly: Human GPR65 cAMP HTRF antagonist assay.
Settings: not given
It is filed as cell-based. Summed up:
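1321N1 astrocytoma cells stably expressing GPR65 were preincubated with compound for 30 min at room temperature in KRH pH 7.6 with 1 mM IBMX and 200 μM EDTA. They were then stimulated at assay pH 7.2 for 30 min, with controls at pH 7.9. cAMP was read by HTRF (665/620 nm), normalised to controls and fitted by 4-parameter logistic to give IC50.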
(In general: TR-FRET usually uses a lanthanide donor and a delayed reading to cut background.)
Broadly, the IC50 is the midpoint of a concentration-inhibition curve. With `O=C(Nc1cccc(-c2ccccc2)c1)N1[C@H]2CC[C@@H]1c1ccnc(F)c1C2` [Compound 184, (5R,8S)-N-([1,1′-Biphenyl]-3-yl)-1-fluoro-6,7,8,9-tetrahydro-5H-5,8-epiminocyclohepta[c]pyridine-10-carboxamide], the concentration for half-maximal inhibition (IC50) was less than 500 nM.

In the case of `O=C(Nc1ccc(Oc2ccccc2)cc1)N1[C@H]2CC[C@@H]1c1ccnc(F)c1C2` [Compound 185, (5R,8S)-1-Fluoro-N-(4-phenoxyphenyl)-6,7,8,9-tetrahydro-5H-5,8-epiminocyclohepta[c]pyridine-10-carboxamide], the IC50 was less than 500 nM.

With `Cc1ncoc1-c1ccc(NC(=O)N2[C@H]3CC[C@@H]2c2ccnc(F)c2C3)cc1` [Compound 187, (5R,8S)-1-Fluoro-N-(4-(4-methyloxazol-5-yl)phenyl)-6,7,8,9-tetrahydro-5H-5,8-epiminocyclohepta[c]pyridine-10-carboxamide], the half-maximal inhibitory concentration (IC50) was in the range of 500 to 5000 nM.

As for `O=C(Nc1cc(Cl)c(Cl)cc1F)N1[C@H]2CC[C@@H]1c1c(F)cncc1C2` [Compound 190, (5R,8S)-N-(4,5-Dichloro-2-fluorophenyl)-4-fluoro-6,7,8,9-tetrahydro-5H-5,8-epiminocyclohepta[c]pyridine-10-carboxamide], the concentration for half-maximal inhibition (IC50) is less than 500 nM.

As for `O=C(Nc1ccc(-c2ccccc2)cc1)N1[C@H]2CC[C@@H]1c1c[nH]c(=O)cc1C2` [Compound 191, (6S,9R)-N-([1,1′-Biphenyl]-4-yl)-3-oxo-3,5,6,7,8,9-hexahydro-2H-6,9-epiminocyclohepta[c]pyridine-10-carboxamide], the IC50 was less than 500 nM.

As to `O=C(Nc1ccc(-c2ccccc2)cc1)N1[C@H]2CC[C@@H]1c1ccnc(F)c1C2` [Compound 192, (5R,8S)-N-([1,1′-Biphenyl]-4-yl)-1-fluoro-6,7,8,9-tetrahydro-5H-5,8-epiminocyclohepta[c]pyridine-10-carboxamide], the half-maximal inhibitory concentration (IC50) is less than 500 nM.

On to `O=C(Nc1cc(Cl)c(C(F)(F)F)cc1F)N1[C@H]2CC[C@@H]1c1ccc(F)nc1C2` [Compound 196, (5R,8S)-N-(5-Chloro-2-fluoro-4-(trifluoromethyl)phenyl)-2-fluoro-6,7,8,9-tetrahydro-5H-5,8-epiminocyclohepta[b]pyridine-10-carboxamide], for which the 50% inhibitory concentration (IC50) is less than 500 nM.

For the compound `O=C(Nc1cc(Cl)c(C(F)(F)F)cc1F)N1[C@@H]2CC[C@H]1c1ccc(F)nc1C2` [Compound 197, (5S,8R)-N-(5-Chloro-2-fluoro-4-(trifluoromethyl)phenyl)-2-fluoro-6,7,8,9-tetrahydro-5H-5,8-epiminocyclohepta[b]pyridine-10-carboxamide], the IC50 was 500 to 5000 nM.

Consider `O=C(Nc1ccc(Cl)c(Cl)c1)N1[C@@H]2CC[C@H]1c1cnc(F)cc1C2` [Compound 198, (6R,9S)-N-(3,4-dichlorophenyl)-3-fluoro-6,7,8,9-tetrahydro-5H-6,9-epiminocyclohepta[c]pyridine-10-carboxamide], for which the IC50 lay in the range of 500 to 5000 nM.

As for `N#Cc1cc(NC(=O)N2[C@H]3CC[C@@H]2c2ccnc(F)c2C3)ccc1Cl` [Compound 199, (5R,8S)-N-(4-Chloro-3-cyanophenyl)-1-fluoro-6,7,8,9-tetrahydro-5H-5,8-epiminocyclohepta[c]pyridine-10-carboxamide], the IC50 is less than 500 nM.

The experiment is the same for the next values; noted with them: 1321N1-hrGPR65 cells, assay pH 7.2, cAMP HTRF; read-out: hGPR65 IC50 (activity class).
For the compound `O=C(Nc1ccc(-n2cccn2)cc1)N1[C@H]2CC[C@@H]1c1ccnc(F)c1C2` [Compound 183, (5R,8S)-N-(4-(1H-Pyrazol-1-yl)phenyl)-1-fluoro-6,7,8,9-tetrahydro-5H-5,8-epiminocyclohepta[c]pyridine-10-carboxamide], the IC50 is 500 to 5000 nM.

In the case of `O=C(Nc1ccc(-c2cscn2)cc1)N1[C@H]2CC[C@@H]1c1ccnc(F)c1C2` [Compound 186, (5R,8S)-1-Fluoro-N-(4-(thiazol-4-yl)phenyl)-6,7,8,9-tetrahydro-5H-5,8-epiminocyclohepta[c]pyridine-10-carboxamide], the IC50 lay within 500 to 5000 nM.

On to `O=C(Nc1ccc(-c2cnco2)cc1)N1[C@H]2CC[C@@H]1c1ccnc(F)c1C2` [Compound 188, (5R,8S)-1-Fluoro-N-(4-(oxazol-5-yl)phenyl)-6,7,8,9-tetrahydro-5H-5,8-epiminocyclohepta[c]pyridine-10-carboxamide], for which the IC50 lay within 500 to 5000 nM.

With `O=C(Nc1cc(Cl)c(Cl)cc1F)N1[C@H]2CC[C@@H]1c1ccnc(C(F)(F)F)c1C2` [Compound 200, (5R,8S)-N-(4,5-dichloro-2-fluorophenyl)-1-(trifluoromethyl)-6,7,8,9-tetrahydro-5H-5,8-epiminocyclohepta[c]pyridine-10-carboxamide], the IC50 lay within 500 to 5000 nM.
